Measurements: patent US20220387457A1 (Qlaris Bio, Inc., priority 2020, published 2022)

Legend:
[1] = biological target: T1, human Kir6.2/SUR2B KATP channel (Homo sapiens, UniProt O60706); experiment: FLIPR membrane potential assay in HEK-Kir6.2/SUR2B cells; type: cell-based; settings: glibenclamide 10 μM
T1 construct: expressed in transfected cells
Protocol: The ability of CKLP1 and the active moiety of CKLP1, leveromakalim, to pharmacologically modulate the function of the human ATP-sensitive potassium channel comprised of Kir6.2 (encoded by the human gene KCNJ11) coupled to the sulfonylurea receptor SUR2B (encoded by the human gene ABCC9) was studied.
Compounds were dissolved up to 10 mM stock solution in DMSO. Ten-point concentration response curves were generated at 100× concentration in 100% DMSO. Compound source plates were made by serially diluting 10 mM compound stocks in DMSO to generate a progressive semilog dilution schema. Dose response stock plate (10 μL) were then transferred into assay plates containing 90 μL of assay buffer, generating 10× working concentrations. Final assay test concentration ranges of 100 μM to 0.003 μM with a final DMSO concentration of 1.0%.
Human embryonic kidney (HEK) cells stably expressing human Kir6.2/SUR2B KATP channel subunits were plated onto 96 well, black poly-d-lysine (PDL)-coated microplates and maintained in growth media the day prior to use for experiments. Media was removed from the plates and 90 μL of 1× stock of the membrane potential sensitive fluorescent dye FMP-Blue resuspended in assay buffer (EBSS—in mM: NaCl 145, KCl 2, Glucose 5, CaCl2) 1.8, MgCl2 0.8, HEPES 10, pH 7.4 with NaOH, 290-300 mOSm) was added to the cells. Cells were incubated at room temperature, protected from light, for 45-60 minutes. After the incubation period, cell, test compound and glibenclamide plates were loaded onto the fluorescence plate reader (FLIPR-TETRA™) and the scanning initiated. The FLIPR measured a 10 second baseline and then added 10 μL of 10× the final desired concentration of test agent. Changes in fluorescence were monitored for an additional 5 minutes. After the 5-minute compound incubation, 10 μL of the receptor inhibitor glibenclamide was added to the cell plate (10 uM final glibenclamide concentration). Changes in fluorescence was then monitored for an additional 5 minutes.
Compound modulation of Kir6.2/SUR2B KATP channel mediated changes in cellular membrane potential was determined as follows. After the administration of compound, FMP fluorescence was monitored for a 5-minute period. The following parameters were recorded and exported from the FLIPR: the average relative fluorescence response (RFU) of 5 images taken at the 5-minute point in the assay with the average background EBSS buffer response subtracted. […] Test agent effect was calculated as % activation using the following formula: […]
Curve fits were performed in GraphPad Prism graphing software using a 4-parameter, variable slope fit equation.

single KATP channels = settings: in the presence of ATP; Brayden et al. 1991; cited from earlier work
[2] = cited from earlier work
[3] = system: α-SMA, CD31, endothelin-I, fibronectin, VE-cadherin, phospho-eNOS and total eNOS; experiment: Protein expression (western blot, immunocytochemistry) in 3D HTM/SC constructs; type: cell-based, human; settings: levcromakalim 1, 10 or 100 μM, Y-27632 10 μM
Protocol: Bioengineered 3D conventional outflow tract constructs using 4 donors (ages 47-91) were treated with […] (5 ng/mL) for 6 days. […] Protein expression of α-smooth muscle actin (α-SMA), CD31, endothelin-I, fibronectin, VE-cadherin, phospho-eNOS and total eNOS was analyzed via western blot. Cellular expression of α-SMA, fibronectin, phospho-eNOS and total eNOS was determined by immunocytochemistry and confocal microscopy. Statistical significance was determined by one-way ANOVA with a Tukey's multiple comparisons test, or by two-way ANOVA.

T1 sequence (O60706 1-1549 isoform O60706-2): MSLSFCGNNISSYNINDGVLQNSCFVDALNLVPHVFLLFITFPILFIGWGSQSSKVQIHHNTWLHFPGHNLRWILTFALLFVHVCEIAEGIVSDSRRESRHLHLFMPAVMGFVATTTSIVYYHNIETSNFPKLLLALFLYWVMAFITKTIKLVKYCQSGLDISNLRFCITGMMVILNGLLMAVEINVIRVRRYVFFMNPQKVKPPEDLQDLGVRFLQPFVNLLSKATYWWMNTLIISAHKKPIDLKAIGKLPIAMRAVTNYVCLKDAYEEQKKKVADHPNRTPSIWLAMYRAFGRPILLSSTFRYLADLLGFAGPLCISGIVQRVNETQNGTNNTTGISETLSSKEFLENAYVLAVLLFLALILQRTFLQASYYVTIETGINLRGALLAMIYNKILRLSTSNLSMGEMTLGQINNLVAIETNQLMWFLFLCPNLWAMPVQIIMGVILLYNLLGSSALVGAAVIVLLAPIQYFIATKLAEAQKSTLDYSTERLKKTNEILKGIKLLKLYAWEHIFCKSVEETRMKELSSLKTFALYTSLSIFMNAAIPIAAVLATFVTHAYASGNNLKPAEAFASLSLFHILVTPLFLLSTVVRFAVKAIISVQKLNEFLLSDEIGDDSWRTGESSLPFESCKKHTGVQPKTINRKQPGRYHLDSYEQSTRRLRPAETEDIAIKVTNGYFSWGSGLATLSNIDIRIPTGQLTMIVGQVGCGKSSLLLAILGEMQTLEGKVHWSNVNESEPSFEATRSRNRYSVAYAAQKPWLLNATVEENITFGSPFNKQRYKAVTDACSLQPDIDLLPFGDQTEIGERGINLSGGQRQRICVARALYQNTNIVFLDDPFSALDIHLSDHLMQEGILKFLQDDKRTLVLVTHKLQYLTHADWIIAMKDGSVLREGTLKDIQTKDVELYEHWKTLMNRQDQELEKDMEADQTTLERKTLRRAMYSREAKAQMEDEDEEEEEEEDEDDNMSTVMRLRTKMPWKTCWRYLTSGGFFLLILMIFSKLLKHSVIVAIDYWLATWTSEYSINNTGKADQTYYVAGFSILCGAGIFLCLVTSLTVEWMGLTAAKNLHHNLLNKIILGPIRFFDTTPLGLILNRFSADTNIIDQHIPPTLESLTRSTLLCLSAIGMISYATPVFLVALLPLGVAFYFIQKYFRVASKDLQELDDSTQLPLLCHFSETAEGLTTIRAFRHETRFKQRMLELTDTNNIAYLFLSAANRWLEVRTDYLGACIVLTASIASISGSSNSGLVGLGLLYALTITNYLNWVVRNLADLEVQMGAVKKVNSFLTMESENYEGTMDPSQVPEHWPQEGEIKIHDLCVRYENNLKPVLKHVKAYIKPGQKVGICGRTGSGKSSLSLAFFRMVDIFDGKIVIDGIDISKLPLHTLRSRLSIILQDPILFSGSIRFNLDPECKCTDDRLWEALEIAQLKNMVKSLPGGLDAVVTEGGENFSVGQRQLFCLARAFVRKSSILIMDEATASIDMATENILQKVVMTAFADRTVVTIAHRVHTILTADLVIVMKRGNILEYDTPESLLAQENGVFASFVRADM
T1 sequence (Q14654 whole entry partner): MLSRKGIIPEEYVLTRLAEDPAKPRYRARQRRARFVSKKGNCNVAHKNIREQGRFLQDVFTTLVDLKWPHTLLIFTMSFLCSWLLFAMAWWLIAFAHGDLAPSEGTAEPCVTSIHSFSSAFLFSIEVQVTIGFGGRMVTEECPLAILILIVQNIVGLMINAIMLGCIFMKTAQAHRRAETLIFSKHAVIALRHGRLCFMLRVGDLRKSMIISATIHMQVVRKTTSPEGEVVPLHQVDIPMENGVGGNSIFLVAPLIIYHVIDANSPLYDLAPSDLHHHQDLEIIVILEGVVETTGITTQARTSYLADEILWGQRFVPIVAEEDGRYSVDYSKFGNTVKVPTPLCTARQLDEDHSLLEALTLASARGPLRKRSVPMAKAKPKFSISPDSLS

Row | Structure (SMILES) | hyperpolarization reversed by coadministration of glibenclamide [1] | increase of open-state probability (Popen) of single KATP channels (single KATP channels) | solubility in water [2] | expression of the cell adhesion proteins CD31 and VE-Cadherin [3] | expression of the cell adhesion proteins CD31 and VE-Cadherin ([3]; listed as Y27632)
1 | CC(N/C(=N\C#N)Nc1ccncc1)C(C)(C)C (stereo not drawn) [Pinacidil, pinacidil, reference compound] | reversed | – | – | – | –
2 | CC1(C)Oc2ccc(C#N)cc2C(N2CCCC2=O)C1O (stereo not drawn) [Cromakalim, cromakalim] | reversed | more than 9 fold | substantially insoluble in water | – | –
3 | C[C@@H](N)[C@H]1CC[C@H](C(=O)Nc2ccncc2)CC1 [Y-27632] | – | – | – | significantly decreased | decreased expression
